Patent US20230312576A1, “4-(7H-PYRROLO[2,3-D]PYRIMIDIN-4-YL)-3,6-DIHYDROPYRIDINE-1-(2H)-CARBOXAMIDE DERIVATIVES AS LIMK AND/OR ROCK KINASES INHIBITORS FOR USE IN THE TREATMENT OF CANCER” (CENTRE NATIONAL DE LA RECHERCHE SCIENTIFIQUE, priority 2020, published 2023)
Where two headings read alike, the source gives them in different places.

What was measured:
[1] = system: cofilin phosphorylation, HeLa cells; experiment: Cofilin phosphorylation by Western Blot (anti-phospho-Ser3-cofilin) in HeLa cells; assay type: cell-based; details: for inhibition at 25 µM: Homo sapiens; for % inhibition Cofilin phosphorylation HeLa cells treated 2 h with 25 uM of inhibitor / inhibition at 25 µM: 2 h
[2] = molecular target: ROCK2 (Homo sapiens (Human), UniProt O75116); experiment: Z'Lyte assay, ROCK2 inhibition at a single concentration; assay type: biochemical
[3] = system: cofilin phosphorylation, MPNST90-8 cells; experiment: Cofilin phosphorylation by Western Blot in MPNST90-8 cells; assay type: cell-based; details: for inhibition at 25 µM: read-out: % inhibition Cofilin phosphorylation MPNST90-8 cells treated 2 h with 25 uM of inhibitor, MPNST90-8 cells, 25 uM
[4] = system: cofilin phosphorylation, MPNST88-14 cells; experiment: Cofilin phosphorylation by Western Blot in MPNST88-14 cells; assay type: cell-based
[5] = molecular target: ROCK1 (Homo sapiens (Human), UniProt Q13464); experiment: Z'Lyte assay, ROCK1 inhibition at a single concentration; assay type: biochemical
[6] = molecular target: LIMK2 (Homo sapiens (Human), UniProt P53671); experiment: Lanthascreen Eu binding assay (TR-FRET), inhibition of LIMK2
[7] = molecular target: LIMK1 (Homo sapiens (Human), UniProt P53667); experiment: Lanthascreen Eu binding assay (TR-FRET), inhibition of LIMK1
[8] = system: HeLa cells; experiment: Cytotoxicity, CellTiter-Glo Luminescent Cell Viability assay, HeLa; assay type: cell-based; details: 48 hours, read-out: EC50 (inhibitor concentration corresponding to half of live cells)
[9] = system: U2OS cells; experiment: Wound-healing migration assay; assay type: cell-based; details: 2.5 μM, 24 h
[10] = system: U2OS cells; experiment: Microtubule dynamics by visualizing mitotic spindles; assay type: cell-based; details: 2.5 μM, 24 hours
[11] = molecular target: LIMK1 and LIMK2; experiment: Lanthascreen Eu binding assay, Ki without LIMK isoform; details: LIMK isoform not stated
[12] = system: SOD1-G93A transgenic mice; experiment: In vivo assay on a mouse model of ALS; details: 10 mg/Kg intraperitoneal, 2 times a week from week 8
[13] = system: MPNST cell line; details: published data; cited from earlier work
[14] = Table 2, normalized to the control condition DMSO
[15] = HeLa, read-out: % inhibition of cofilin phosphorylation in HeLa cells (treatment 2 h, at 25 μM), Table 2, normalized to the control condition DMSO
[16] = read-out: % inhibition Cofilin phosphorylation HeLa cells treated 2 h with 25 uM of inhibitor, HeLa cells, 25 uM
[17] = read-out: % inhibition (ROCK2) 1 uM, 1 uM
[18] = read-out: % inhibition Cofilin phosphorylation MPNST88-14 cells treated 2 h with 25 uM of inhibitor, MPNST88-14 cells, 25 uM
[19] = read-out: % inhibition (ROCK1) 1 uM, 1 uM
[20] = read-out: % inhibition (ROCK2) 1 uM
[21] = read-out: % inhibition (ROCK1) 1 uM
[22] = HeLa, read-out: % inhibition Cofilin phosphorylation HeLa cells treated 2 h with 25 uM of inhibitor
[23] = 2 h, read-out: % inhibition Cofilin phosphorylation MPNST88-14 cells treated 2 h with 25 uM of inhibitor

LIMK2, sequence (P53671 whole entry): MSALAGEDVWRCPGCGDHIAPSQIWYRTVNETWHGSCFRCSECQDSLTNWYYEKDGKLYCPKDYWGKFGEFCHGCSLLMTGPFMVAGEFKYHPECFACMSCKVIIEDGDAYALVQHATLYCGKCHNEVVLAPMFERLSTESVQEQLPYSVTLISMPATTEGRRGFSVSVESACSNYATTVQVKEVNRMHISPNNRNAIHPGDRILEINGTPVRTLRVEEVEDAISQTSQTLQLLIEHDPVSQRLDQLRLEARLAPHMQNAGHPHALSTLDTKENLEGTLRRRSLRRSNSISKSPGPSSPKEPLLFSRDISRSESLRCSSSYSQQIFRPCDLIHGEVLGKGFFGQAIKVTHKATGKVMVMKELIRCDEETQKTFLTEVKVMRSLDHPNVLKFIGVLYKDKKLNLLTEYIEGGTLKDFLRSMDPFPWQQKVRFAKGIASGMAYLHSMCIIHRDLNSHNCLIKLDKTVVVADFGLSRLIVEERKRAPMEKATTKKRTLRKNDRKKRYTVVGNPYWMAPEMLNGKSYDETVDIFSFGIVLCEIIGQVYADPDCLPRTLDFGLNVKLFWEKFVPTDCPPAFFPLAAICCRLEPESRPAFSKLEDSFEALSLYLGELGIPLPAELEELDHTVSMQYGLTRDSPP
ROCK1, sequence (Q13464 whole entry): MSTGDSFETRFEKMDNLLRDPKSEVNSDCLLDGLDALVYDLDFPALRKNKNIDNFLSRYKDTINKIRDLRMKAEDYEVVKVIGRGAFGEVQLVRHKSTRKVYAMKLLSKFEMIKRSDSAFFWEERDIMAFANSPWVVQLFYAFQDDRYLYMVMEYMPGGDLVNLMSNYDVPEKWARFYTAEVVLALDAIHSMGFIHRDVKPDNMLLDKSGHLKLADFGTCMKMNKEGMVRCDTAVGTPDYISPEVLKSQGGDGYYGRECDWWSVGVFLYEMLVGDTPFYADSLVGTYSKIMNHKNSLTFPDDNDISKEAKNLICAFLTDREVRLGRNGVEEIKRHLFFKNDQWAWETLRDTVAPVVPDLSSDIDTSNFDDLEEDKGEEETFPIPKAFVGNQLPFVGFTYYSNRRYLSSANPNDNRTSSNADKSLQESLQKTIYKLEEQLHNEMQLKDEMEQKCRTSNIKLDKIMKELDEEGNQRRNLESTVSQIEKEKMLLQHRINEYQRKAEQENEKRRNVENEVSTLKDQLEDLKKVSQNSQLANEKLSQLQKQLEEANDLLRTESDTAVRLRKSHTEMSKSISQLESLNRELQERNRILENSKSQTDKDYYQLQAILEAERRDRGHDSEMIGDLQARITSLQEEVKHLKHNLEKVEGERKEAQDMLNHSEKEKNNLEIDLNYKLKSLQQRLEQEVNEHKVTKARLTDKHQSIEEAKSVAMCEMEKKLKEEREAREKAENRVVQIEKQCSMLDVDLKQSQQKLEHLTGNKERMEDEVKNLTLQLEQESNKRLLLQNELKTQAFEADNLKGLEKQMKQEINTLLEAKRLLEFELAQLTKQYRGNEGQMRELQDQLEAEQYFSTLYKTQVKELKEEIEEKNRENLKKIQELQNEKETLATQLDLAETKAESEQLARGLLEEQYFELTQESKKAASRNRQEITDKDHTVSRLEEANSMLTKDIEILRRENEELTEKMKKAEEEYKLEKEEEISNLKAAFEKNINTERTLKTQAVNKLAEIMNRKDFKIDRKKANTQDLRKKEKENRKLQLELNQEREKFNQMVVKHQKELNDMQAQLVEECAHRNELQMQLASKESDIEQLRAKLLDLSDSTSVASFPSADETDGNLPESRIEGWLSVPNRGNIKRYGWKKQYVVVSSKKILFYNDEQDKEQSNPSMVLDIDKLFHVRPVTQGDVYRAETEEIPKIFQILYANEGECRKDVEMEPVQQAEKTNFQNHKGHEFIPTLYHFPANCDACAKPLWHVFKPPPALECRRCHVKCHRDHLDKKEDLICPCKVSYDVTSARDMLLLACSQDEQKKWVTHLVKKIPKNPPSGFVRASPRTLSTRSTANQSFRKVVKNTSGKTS
ROCK2, sequence (O75116 whole entry): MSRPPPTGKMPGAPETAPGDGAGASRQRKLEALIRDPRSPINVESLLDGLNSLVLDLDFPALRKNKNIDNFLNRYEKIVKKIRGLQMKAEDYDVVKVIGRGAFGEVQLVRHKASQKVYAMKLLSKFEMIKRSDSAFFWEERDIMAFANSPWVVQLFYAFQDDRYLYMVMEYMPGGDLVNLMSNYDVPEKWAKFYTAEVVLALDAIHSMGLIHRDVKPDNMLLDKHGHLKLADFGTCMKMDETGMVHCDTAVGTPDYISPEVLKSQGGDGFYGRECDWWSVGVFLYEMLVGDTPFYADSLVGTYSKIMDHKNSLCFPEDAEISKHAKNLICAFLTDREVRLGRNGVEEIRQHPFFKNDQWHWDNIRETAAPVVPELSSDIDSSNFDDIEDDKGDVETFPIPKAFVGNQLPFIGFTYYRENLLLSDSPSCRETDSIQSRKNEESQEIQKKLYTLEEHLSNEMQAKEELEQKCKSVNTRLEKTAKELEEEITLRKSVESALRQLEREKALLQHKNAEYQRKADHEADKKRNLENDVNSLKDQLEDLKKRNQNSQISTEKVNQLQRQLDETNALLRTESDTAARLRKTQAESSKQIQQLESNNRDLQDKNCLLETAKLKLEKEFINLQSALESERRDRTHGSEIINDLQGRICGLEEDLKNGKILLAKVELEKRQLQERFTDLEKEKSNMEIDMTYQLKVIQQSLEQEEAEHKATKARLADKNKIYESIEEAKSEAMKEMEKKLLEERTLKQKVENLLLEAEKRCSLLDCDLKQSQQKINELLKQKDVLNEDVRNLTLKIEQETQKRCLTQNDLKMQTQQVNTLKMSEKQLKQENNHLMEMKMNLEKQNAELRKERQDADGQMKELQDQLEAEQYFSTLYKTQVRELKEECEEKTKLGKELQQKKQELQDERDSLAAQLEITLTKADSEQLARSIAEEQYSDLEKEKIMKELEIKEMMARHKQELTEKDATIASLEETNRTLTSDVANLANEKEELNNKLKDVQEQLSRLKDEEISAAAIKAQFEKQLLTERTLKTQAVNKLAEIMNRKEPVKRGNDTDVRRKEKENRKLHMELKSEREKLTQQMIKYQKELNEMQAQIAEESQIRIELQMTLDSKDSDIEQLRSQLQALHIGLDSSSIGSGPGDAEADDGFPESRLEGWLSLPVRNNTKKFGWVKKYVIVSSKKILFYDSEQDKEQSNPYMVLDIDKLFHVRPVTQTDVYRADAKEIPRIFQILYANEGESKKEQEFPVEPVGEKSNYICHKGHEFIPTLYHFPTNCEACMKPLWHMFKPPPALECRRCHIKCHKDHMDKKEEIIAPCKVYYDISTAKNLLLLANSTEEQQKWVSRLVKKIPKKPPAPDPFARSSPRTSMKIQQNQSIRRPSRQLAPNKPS
LIMK1, sequence (P53667 whole entry): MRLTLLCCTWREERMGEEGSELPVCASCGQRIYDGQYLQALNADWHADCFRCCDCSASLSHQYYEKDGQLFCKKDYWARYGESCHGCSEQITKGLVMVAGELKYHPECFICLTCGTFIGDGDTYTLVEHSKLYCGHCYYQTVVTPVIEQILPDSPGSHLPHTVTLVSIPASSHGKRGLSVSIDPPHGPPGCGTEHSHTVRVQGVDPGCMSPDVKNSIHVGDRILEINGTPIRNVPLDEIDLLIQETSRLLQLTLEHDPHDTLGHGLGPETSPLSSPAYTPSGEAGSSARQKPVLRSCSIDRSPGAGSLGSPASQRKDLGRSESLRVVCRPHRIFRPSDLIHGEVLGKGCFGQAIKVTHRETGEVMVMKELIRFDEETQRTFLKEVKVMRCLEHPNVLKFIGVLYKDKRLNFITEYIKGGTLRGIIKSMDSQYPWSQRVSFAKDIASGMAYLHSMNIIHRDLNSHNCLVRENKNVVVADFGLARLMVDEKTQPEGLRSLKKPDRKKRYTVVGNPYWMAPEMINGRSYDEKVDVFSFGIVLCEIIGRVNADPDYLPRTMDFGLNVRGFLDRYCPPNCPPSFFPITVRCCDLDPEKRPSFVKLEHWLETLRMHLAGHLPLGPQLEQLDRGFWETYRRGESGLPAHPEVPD

Row | Compound | inhibition at 25 µM [1, 15] [%] | inhibition at 25 µM [1, 16] [%] | inhibition at 1 µM [2, 17] [%] | inhibition at 25 µM [4, 18] [%] | Ki ([6]; Lanthascreen Eu binding assay) [µM] | Ki ([7]; Lanthascreen Eu binding assay) [µM] | inhibition at 1 µM [5, 19] [%] | inhibition at 1 µM [2, 20] [%] | inhibition at 1 µM [5, 21] [%] | further results
1 | Cc1c[nH]c2ncnc(C3=CC(C)N(C(=O)Nc4cccc(Oc5ccccc5)c4)C(C)C3)c12 (stereo not drawn) [Compound 60, 2,6-Dimethyl-4-(5-methyl-7H-pyrrolo[2,3-d]pyrimidin-4-yl)-N-(3-phenoxyphenyl)-3,6-dihydro pyridine-1(2H)-carboxamide] |  |  |  |  |  |  |  |  |  | % inhibition Cofilin phosphorylation HeLa cells treated 2 h with 25 uM of inhibitor ([1]; HeLa cells, 25 uM): 94.2%; % inhibition of cofilin phosphorylation in HeLa cells (treatment 2 h, at 25 μM) [1, 14]: 94.2%; % inhibition (ROCK2) 1 uM [2]: 7%; % inhibition Cofilin phosphorylation MPNST90-8 cells treated 2 h with 25 uM of inhibitor [3]: 81.1%; % inhibition Cofilin phosphorylation MPNST88-14 cells treated 2 h with 25 uM of inhibitor ([4]; MPNST88-14 cells, 25 uM): 74.5%; % inhibition (ROCK1) 1 uM [5]: 11%
2 | O=C(Nc1cccc(Oc2ccccc2)c1)N1CC=C(c2ncnc3[nH]c4c(c23)CCC4)CC1 [Compound 125, N-(3-Phenoxyphenyl)-4-(5,6,7,8-tetrahydrocyclopenta[4,5]pyrrolo[2,3-d]pyrimidin-4-yl)-3,6-dihydropyridine-1(2H)-carboxamide] | 81.4 | 81.4 | -2 | 80.8 | 0.0285 | 0.029 | 10 |  |  | inhibition at 25 µM [3]: 76.1%
3 | O=C(Nc1cccc(Cl)c1)N1CC=C(c2ncnc3[nH]c4c(c23)CCCC4)CC1 [Compound 114, N-(3-Chlorophenyl)-4-(6,7,8,9-tetrahydro-5H-pyrimido[4,5-b]indol-4-yl)-3,6-dihydropyridine-1(2H)-carboxamide] | 89.3 | 89.3 |  | 74.7 | 0.0255 | 0.00998 |  | 8 | 4 | 
4 | O=C(Nc1cccc(F)c1)N1CC=C(c2ncnc3[nH]c4c(c23)COCC4)CC1 [Compound 157, N-(3-Fluorophenyl)-4-(5,7,8,9-tetrahydropyrano[3′,4′:4,5]pyrrolo[2,3-d]pyrimidin-4-yl)-3,6-dihydropyridine-1(2H)-carboxamide] | 79.5 | 79.5 | -1 | 56.5 | 0.319 | 0.172 | 7 |  |  | 
5 | CN(C)C(=O)Oc1cccc(NC(=O)N2CC=C(c3ncnc4[nH]c5c(c34)CCC5)CC2)c1 [Compound 122, 3-(4-(5,6,7,8-Tetrahydrocyclopenta[4,5]pyrrolo[2,3-d]pyrimidin-4-yl)-1,2,3,6-tetrahydropyridine-1-carboxamido)phenyl dimethyl carbamate] |  |  |  |  | 0.00402 | 0.00711 |  |  |  | % inhibition Cofilin phosphorylation HeLa cells treated 2 h with 25 uM of inhibitor ([1]; HeLa cells, 25 uM): 81.3%; % inhibition of cofilin phosphorylation in HeLa cells (treatment 2 h, at 25 μM) [1, 14]: 81.3%; % inhibition (ROCK2) 1 uM [2]: 14%; % inhibition Cofilin phosphorylation MPNST90-8 cells treated 2 h with 25 uM of inhibitor [3]: 65.6%; % inhibition (ROCK1) 1 uM [5]: 4%
6 | CC(C)C(=O)Nc1ncc(-c2cc(C(F)F)nn2-c2c(Cl)cccc2Cl)s1 [LIMKi3] |  |  |  |  |  |  |  |  |  | EC50 [8]: 9 µM
7 | O=C(Nc1cccc(Br)c1)N1CC=C(c2ncnc3[nH]c4c(c23)COCC4)CC1 [Compound 159, N-(3-Bromophenyl)-4-(5,7,8,9-tetrahydropyrano[3′,4′:4,5]pyrrolo[2,3-d]pyrimidin-4-yl)-3,6-dihydropyridine-1(2H)-carboxamide] |  |  |  |  |  |  |  | 3 | 11 | inhibition at 25 µM [1, 22]: 70.3%; inhibition at 25 µM [4, 23]: 64.3%; Ki [6]: 0.0515 µM; Ki [7]: 0.051 µM
8 | Cc1c[nH]c2ncnc(C3=CCN(C(=O)Nc4cccc(Oc5ccccc5)c4)CC3)c12 [Compound 15, 4-(5-Methyl-7H-pyrrolo[2,3-d]pyrimidin-4-yl)-N-(3-phenoxy-phenyl)-3,6-dihydropyridine-1(2H)-carboxamide] | 92.1 | 92.1 | 24 | 78.6 | 0.0144 | 0.0194 | 44 |  |  | inhibition of U2OS cell migration upon scratch [9]: particularly efficient; effects on microtubule dynamics (mitotic spindles) [10]: strong effects on microtubule dynamics; inhibition at 25 µM [3]: 83.2%
9 | Cc1c[nH]c2ncnc(N3CCC(CN)(C(=O)Nc4cccc(OC(=O)N(C)C)c4)CC3)c12 [LX7101, reference compound] | 85.1 |  |  |  |  |  |  |  |  | Ki [11]: 0.0039 µM
10 | O=C(Nc1cccc(Cl)c1)N1CC=C(c2ncnc3[nH]c4c(c23)COCC4)CC1 [Compound 158, N-(3-Chlorophenyl)-4-(5,7,8,9-tetrahydropyrano[3′,4′:4,5]pyrrolo[2,3-d]pyrimidin-4-yl)-3,6-dihydropyridine-1(2H)-carboxamide] |  | 65.3 |  | 59.8 | 0.093 | 0.0656 |  | 1 | 2 | 
11 | O=C(Nc1cccc(Br)c1)N1CC=C(c2ncnc3[nH]c4c(c23)CSCC4)CC1 [Compound 156, N-(3-Bromophenyl)-4-(5,7,8,9-tetrahydrothiopyrano [3′,4′:4,5]pyrrolo[2,3-d]pyrimidin-4-yl)-3,6-dihydropyridine-1(2H)-carboxamide] |  |  |  |  |  |  |  | 15 | 3 | inhibition at 25 µM [1, 22]: 68.2%; inhibition at 25 µM [4, 23]: 61.6%; Ki [6]: 0.0315 µM; Ki [7]: 0.0414 µM
12 | O=C(Nc1cccc(Cl)c1)N1CC=C(c2ncnc3[nH]c4c(c23)CSCC4)CC1 [Compound 155, N-(3-Chlorophenyl)-4-(5,7,8,9-tetrahydrothiopyrano [3′,4′:4,5]pyrrolo[2,3-d]pyrimidin-4-yl)-3,6-dihydropyridine-1(2H)-carboxamide] |  | 72.8 |  | 57.7 | 0.0942 | 0.0941 |  | 14 | 10 | 
13 | Cc1c[nH]c2ncnc(C3=CC(C)N(C(=O)Nc4cccc(F)c4)C(C)C3)c12 (stereo not drawn) [Compound 57, N-(3-Fluorophenyl)-2,6-dimethyl-4-(5-methyl-7H-pyrrolo[2,3-d]pyrimidin-4-yl)-3,6-dihydropyridine-1(2H)-carboxamide] | 90.3 | 90.3 | 36 | 81 | 0.103 | 0.0466 | 59 |  |  | inhibition at 25 µM [3]: 93.3%
14 | O=C(Nc1cccc(F)c1)N1CC=C(c2ncnc3[nH]c4c(c23)CCC4)CC1 [Compound 110, N-(3-Fluorophenyl)-4-(5,6,7,8-tetrahydrocyclopenta[4,5]pyrrolo[2,3-d]pyrimidin-4-yl)-3,6-dihydropyridine-1(2H)-carboxamide] | 79 | 79 | 9 |  | 0.041 | 0.005 | 3 |  |  | later development of the disease phenotype and endpoint of the disease (survival) [12]: do not observed improvement; loss of weight [12]: significant effect on delaying; onset of motor symptoms (early Neuroscore stages and first time decay in the rotarod test) [12]: significant effect on delaying
15 | Cc1cc(C(=O)Nc2cccc(C(=O)Nc3cccc(C(F)(F)F)c3)c2)on1 [Compound T56-LIMKi] |  |  |  |  |  |  |  |  |  | EC50 [13]: ~20 µM
